Results: ChEMBL document CHEMBL3217615, “Novel 3,5-bis(arylidiene)-4-piperidone based monocarbonyl analogs of curcumin: anticancer activity evaluation and mode of action study” (2014)

Legend:
Assay type in all cases: functional
[1] = Growth inhibition of human OVCAR5 cells assessed as cell growth at 10^-6 M after 48 hrs by sulforhodamine B assay; conditions: OVCAR-5, 48 h, read-out: Activity
HOP-62 = assay: Growth inhibition of human HOP62 cells assessed as cell growth at 10^-6 M after 48 hrs by sulforhodamine B assay; conditions: HOP-62, 48 h, read-out: Activity
ACHN = assay: Growth inhibition of human ACHN cells assessed as cell growth at 10^-7 M after 48 hrs by sulforhodamine B assay; conditions: read-out: Activity
[2] = Growth inhibition of human OVCAR5 cells assessed as cell growth at 10^-7 M after 48 hrs by sulforhodamine B assay; conditions: OVCAR-5, 48 h, read-out: Activity
U-251 [3] = assay: Growth inhibition of human U251 cells assessed as cell growth at 10^-5 M after 48 hrs by sulforhodamine B assay; conditions: U-251, 48 h, read-out: Activity
[4] = Growth inhibition of human SF295 cells assessed as cell growth at 10^-5 M after 48 hrs by sulforhodamine B assay; conditions: SF-295, 48 h, read-out: Activity
[5] = Growth inhibition of human BT549 cells assessed as cell growth at 10^-6 M after 48 hrs by sulforhodamine B assay; conditions: BT-549, 48 h, read-out: Activity
[6] = Growth inhibition of human RXF393 cells assessed as cell growth at 10^-6 M after 48 hrs by sulforhodamine B assay; conditions: RXF 393, 48 h, read-out: Activity
[7] = Growth inhibition of human OVCAR8 cells assessed as cell growth at 10^-6 M after 48 hrs by sulforhodamine B assay; conditions: OVCAR-8, 48 h, read-out: Activity
SK-MEL-28 = assay: Growth inhibition of human SK-MEL-28 cells assessed as cell growth at 10^-4 M after 48 hrs by sulforhodamine B assay; conditions: SK-MEL-28, 48 h, read-out: Activity
M14 = assay: Growth inhibition of human M14 cells assessed as cell growth at 10^-4 M after 48 hrs by sulforhodamine B assay; conditions: M14, 48 h, read-out: Activity
U-251 [8] = assay: Growth inhibition of human U251 cells assessed as cell growth at 10^-4 M after 48 hrs by sulforhodamine B assay; conditions: U-251, 48 h, read-out: Activity
SNB-19 = assay: Growth inhibition of human SNB19 cells assessed as cell growth at 10^-4 M after 48 hrs by sulforhodamine B assay; conditions: SNB-19, 48 h, read-out: Activity
COLO 205 = assay: Growth inhibition of human COLO205 cells assessed as cell growth at 10^-4 M after 48 hrs by sulforhodamine B assay; conditions: COLO 205, 48 h, read-out: Activity
NCI-H460 [9] = assay: Growth inhibition of human NCI-H460 cells assessed as cell growth at 10^-4 M after 48 hrs by sulforhodamine B assay; conditions: NCI-H460, 48 h, read-out: Activity
[10] = Growth inhibition of human UACC257 cells assessed as cell growth at 10^-8 M after 48 hrs by sulforhodamine B assay; conditions: UACC-257, 48 h
MDA-MB-435 = assay: Growth inhibition of human MDA-MB-435 cells assessed as cell growth at 10^-8 M after 48 hrs by sulforhodamine B assay; conditions: MDA-MB-435, 48 h
NCI-H226 = assay: Growth inhibition of human NCI-H226 cells assessed as cell growth at 10^-8 M after 48 hrs by sulforhodamine B assay; conditions: NCI-H226, 48 h
DU-145 [11] = assay: Growth inhibition of human DU145 cells after 48 hrs by sulforhodamine B assay; conditions: DU-145, 48 h
[12] = Growth inhibition of human RXF393 cells after 48 hrs by sulforhodamine B assay; conditions: RXF 393, 48 h
SK-OV-3 = assay: Growth inhibition of human SKOV3 cells after 48 hrs by sulforhodamine B assay; conditions: SK-OV-3, 48 h
[13] = Growth inhibition of human OVCAR8 cells after 48 hrs by sulforhodamine B assay; conditions: OVCAR-8, 48 h
[14] = Growth inhibition of human OVCAR5 cells after 48 hrs by sulforhodamine B assay; conditions: OVCAR-5, 48 h
KM12 = assay: Growth inhibition of human KM12 cells after 48 hrs by sulforhodamine B assay; conditions: KM12, 48 h
NCI-H460 [15] = assay: Growth inhibition of human NCI-H460 cells after 48 hrs by sulforhodamine B assay; conditions: NCI-H460, 48 h
MDA-MB-231 = assay: Growth inhibition of human MDA-MB-231 cells assessed as cell growth at 10^-4 M after 48 hrs by sulforhodamine B assay; conditions: MDA-MB-231, 48 h, read-out: Activity
DU-145 [16] = assay: Growth inhibition of human DU145 cells assessed as cell growth at 10^-4 M after 48 hrs by sulforhodamine B assay; conditions: DU-145, 48 h, read-out: Activity
[17] = Growth inhibition of human UACC62 cells assessed as cell growth at 10^-7 M after 48 hrs by sulforhodamine B assay; conditions: UACC-62, 48 h, read-out: Activity
MCF7 = assay: Growth inhibition of human MCF7 cells assessed as cell growth at 10^-8 M after 48 hrs by sulforhodamine B assay; conditions: MCF7, 48 h
[18] = Growth inhibition of human UO31 cells assessed as cell growth at 10^-8 M after 48 hrs by sulforhodamine B assay; conditions: UO-31, 48 h
[19] = Growth inhibition of human RXF393 cells assessed as cell growth at 10^-8 M after 48 hrs by sulforhodamine B assay; conditions: RXF 393, 48 h
IGROV-1 = assay: Growth inhibition of human IGROV1 cells assessed as cell growth at 10^-8 M after 48 hrs by sulforhodamine B assay; conditions: IGROV-1, 48 h
[20] = read-out: LC50 (the source's name)

O=C1/C(=C/c2ccc(Cl)cc2Cl)CN(S(=O)(=O)c2ccccc2)C/C1=C\c1ccc(Cl)cc1Cl
growth at 1 µM [1]: 80%
growth at 1 µM (HOP-62): 5%
growth at 0.1 µM (ACHN): 96%
growth at 0.1 µM [2]: 94%
growth at 10 µM (U-251 [3]): -66%
growth at 10 µM [4]: -3%
growth at 1 µM [5]: 50%
growth at 1 µM [6]: 54%
growth at 1 µM [7]: -2%
growth at 100 µM (SK-MEL-28): 42%
growth at 100 µM (M14): 31%
growth at 100 µM (U-251 [8]): -63%
growth at 100 µM (SNB-19): -23%
growth at 100 µM (COLO 205): -25%
growth at 100 µM (NCI-H460 [9]): -61%
GI50 [10]: 4070 nM
LC50 [10]: > 100000 nM
growth at 0.01 µM ([10]; read-out: Activity): 94%
TGI ([10]; read-out: pTGI (converted)): > 100000 nM
GI50 (MDA-MB-435): 977 nM
LC50 (MDA-MB-435): > 100000 nM
growth at 0.01 µM (MDA-MB-435; read-out: Activity): 90%
TGI (MDA-MB-435; read-out: pTGI (converted)): 3240 nM
GI50 (NCI-H226): 1050 nM
LC50 (NCI-H226): 7940 nM
growth at 0.01 µM (NCI-H226; read-out: Activity): 92%
TGI (NCI-H226; read-out: pTGI (converted)): 2880 nM
GI50 (DU-145 [11]): 446 nM
TGI (DU-145 [11]): 18800 nM
CC50 (DU-145 [11]; [20]): > 100000 nM
GI50 [12]: 1060 nM
TGI [12]: 2420 nM
CC50 [12, 20]: 5540 nM
GI50 (SK-OV-3): 7950 nM
TGI (SK-OV-3): > 100000 nM
CC50 (SK-OV-3; [20]): > 100000 nM
GI50 [13]: 286 nM
TGI [13]: 958 nM
CC50 [13, 20]: > 100000 nM
GI50 [14]: 2130 nM
TGI [14]: 7430 nM
CC50 [14, 20]: > 100000 nM
GI50 (KM12): 256 nM
TGI (KM12): 602 nM
CC50 (KM12; [20]): 25700 nM
GI50 (NCI-H460 [15]): 208 nM
TGI (NCI-H460 [15]): 447 nM
CC50 (NCI-H460 [15]; [20]): 959 nM
growth at 100 µM (MDA-MB-231): -49%
growth at 100 µM (DU-145 [16]): -10%
growth at 0.1 µM [17]: 95%
GI50 (MCF7): 302 nM
LC50 (MCF7): > 100000 nM
growth at 0.01 µM (MCF7; read-out: Activity): 96%
TGI (MCF7; read-out: pTGI (converted)): 100000 nM
GI50 [18]: 234 nM
LC50 [18]: 4790 nM
growth at 0.01 µM ([18]; read-out: Activity): 88%
TGI ([18]; read-out: pTGI (converted)): 646 nM
GI50 [19]: 1070 nM
growth at 0.01 µM ([19]; read-out: Activity): 78%
CC50 ([19]; read-out: pLC50 (the source's name) (converted)): 5500 nM
TGI ([19]; read-out: pTGI (converted)): 2400 nM
GI50 (IGROV-1): 316 nM
LC50 (IGROV-1): > 100000 nM
growth at 0.01 µM (IGROV-1; read-out: Activity): 116%
TGI (IGROV-1; read-out: pTGI (converted)): 646 nM
